Test results reported in US11247976B2, “Synthetic ligands that modulate the activity of the RhlR quorum sensing receptor” (Wisconsin Alumni Research Foundation, priority 2016, dated 2022).
pIC50: −log10 of the molar value. Entries after “also recorded” stand apart in the source; their conditions may differ.

Assays:
RhlR [1] = target: T1, RhlR (Pseudomonas aeruginosa, UniProt P54292); experiment: E. coli RhlR reporter antagonism assay vs 10 μM BHL (JLD271/pJN105R2/pSC11-rhlI*); assay type: cell-based, P. aeruginosa; settings: for Maximum Inhibition (%): E. coli reporter, relative to activation of 10 μM BHL alone
T1 construct: expressed in transfected cells; host or cells: E. coli JLD271 (ΔsdiA) with pJN105R2 (arabinose-induced) and pSC11-rhlI*
T1 sequence (P54292 whole entry): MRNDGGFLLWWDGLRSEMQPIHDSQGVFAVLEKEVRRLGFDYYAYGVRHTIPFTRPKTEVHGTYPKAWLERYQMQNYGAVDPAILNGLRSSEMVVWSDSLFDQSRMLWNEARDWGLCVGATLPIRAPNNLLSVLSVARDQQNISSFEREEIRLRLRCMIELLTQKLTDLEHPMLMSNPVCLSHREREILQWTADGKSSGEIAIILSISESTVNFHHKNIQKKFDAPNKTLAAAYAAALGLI
Method: (§1) All media and reagents for bacterial culture were purchased from commercial sources. Bacteria were cultured in Luria-Bertani broth (LB) at 37° C. with shaking at 200 rpm unless otherwise noted. The bacterial reporter strains used for this study were (i) the heterologous E. coli strain JLD271 (ΔsdiA) harboring the RhlR expression plasmid pJN105R2 and the rhlI-lacZ transcriptional fusion reporter pSC11-rhlI*, (ii) the heterologous E. coli strain JLD271 (ΔsdiA) harboring the LasR expression plasmid pJN105L and the […] transcriptional fusion reporter pSC11, and (iii) the P. aeruginosa strain PAO-JP2 (ΔlasrhlI) harboring the rhlI-gfp transcriptional fusion reporter prhlI-LVAgfp. Reporter strains JLD271/pJN105R2/pSC11-rhlI* and JLD271/pJN105L/pSC11 were grown in LB containing 100 μg/mL ampicillin and 10 μg/mL gentamicin. Freezer stocks of bacterial strains were maintained at −80° C. in 1:1 LB:50% glycerol.
To evaluate the modulatory activities of library compounds on RhlR and LasR using E. coli reporters, the strains JLD271/pJN105R2/pSC11-rhlI* and JLD271/pJN105L/pSC11 were used, respectively, as previously described.^38, 51 The following modifications were used in the RhlR agonism reporter assay, non-native compounds (10 μM or 1 mM) were compared to 1 mM BHL as the positive control. Briefly, a subculture was prepared by diluting an overnight culture 1:10 with fresh media containing 100 μg/mL ampicillin and 10 μg/mL gentamicin, and was incubated until it had grown to OD600=0.45. In all assays, L-arabinose was added to a final concentration of 4 mg/mL to induce RhlR expression. For RhlR agonism assays, activities of test compounds were measured relative to 1 mM BHL (the concentration required to induce a maximal level of RhlR activity). […] Activity was measured relative to 10 μM BHL. Inhibition was calculated by subtracting 100% from the relative activity value. Thus, 0% inhibition mimics represents no competitive displacement of 10 μM BHL by a test compound. In all assays, modifications were made to the standard Miller assay protocol to accommodate the use of the chlorophenol red-β-D-galactopyranoside (CPRG) β-galactosidase substrate. After cell lysis, 150 μL of the aqueous layer was transferred from each well of a solvent-resistant 96-well microtiter plate to the wells of a new clear, flat-bottom 96-well microtiter plate. CPRG (4 mg/mL in phosphate-buffered saline) was added to each well in 25 μL volumes. Plates were incubated at 30° C. until the positive control wells developed a red color (approximately 30 min). The amount of processed CPRG substrate was assessed by measuring the absorbance of each well at 570 nm. Enzymatic activity was calculated using the following equation: adjusted Miller units=1000·Abs570/(OD600·t·V),
(§2) where t is the incubation time of substrate with lysate and V is the volume of culture lysed.
The RhlR-modulatory activity of the J library compounds was assessed in a heterologous reporter strain (E. coli JLD271 harboring plasmids pJN105R2 and pSC11-rhlI*) in order to isolate the RhlR receptor from upstream QS regulation (e.g. regulation by LasR). Thus, the extent to which compounds were directly modulating RhlR could be determined. These assays were performed by incubating compound-treated, mid-log phase E. coli reporter cells in 96-well microtiter plates, followed by Miller assay evaluation of ß-galactosidase activity.
RhlR agonism and antagonism screens of each compound were performed initially at 10 μM.

[2] = Hydrolytic stability in buffers of varying pH by HPLC; assay type: physicochemical; settings: room temperature
Method: To assess the relative stability of the thiolactone and homoserine lactone moieties, stability studies were performed as reported previously,^53 with the following changes. Compounds RN22 and E22 (50 μM) were dissolved in either 1 mM 2-(N-morpholino)-ethanesulfonic acid (MES) buffer at pH 6, or 1 mM tris(hydroxymethyl)-aminomethane (TRIS) buffer at pH 7, pH 8, or pH 9. Solutions were placed static at room temperature, and 150 μL aliquots were taken every two hours for eight hours, then again at 24 hours. Samples were immediately separated via HPLC, and the area under the curve (AUC) at 220 nm was calculated and compared to the area at t=0. […] Degradation of both compounds to the hydrolysis product was confirmed via mass spectrometry of the resulting byproduct peak.
P. aeruginosa media is observed to become more alkaline over time, making the hydrolytic instability of the homoserine lactone head group a concern in developing AHL-type modulators for use in the wild-type organism. […] To evaluate their stability in a more direct assay, the stability of thiolactone RN22 relative to its lactone homolog E22 was monitored over time and at varying pH values using HPLC. The amount of compound RN22 remaining over 24 h was compared to E22. […] Degradation products were confirmed to be the hydrolyzed lactone head groups via mass spectroscopy.

RhlR [3] = target: T1, RhlR; experiment: P. aeruginosa RhlR reporter antagonism assay vs 10 μM BHL (PAO-JP2/prhlI-LVAgfp); assay type: cell-based
Method: FIGS. 10A and B illustrate exemplary dose-response curves for RhlR antagonism in the E. coli JLD271/pJN105R2/pSC11-rhlI* reporter strain vs. 10 μM BHL (FIG. 10A) and in the P. aeruginosa PAO-JP2/prhlI-LVAgfp reporter strain vs. 10 μM BHL (FIG. 10B).
(§3) To evaluate the RhlR-modulatory activities of selected compounds in P. aeruginosa, the ΔlasIrhlI strain PAO-JP2 harboring plasmid prhlI-LVAgfp was used as previously reported.^38 Briefly, a subculture was prepared by diluting an overnight culture 1:100 in fresh LB and was grown to OD600=0.3. […] Subculture was treated with 100 nM OdDHL (to induce native expression of RhlR) by adding the appropriate amount of OdDHL stock solution in DMSO. The subculture was then dispensed ([…] aliquots) into each synthetic compound-containing well of the microtiter plate.
(§4) Plates were incubated at 37° C. for 6 h, and GFP production was monitored by using a Synergy 2 plate reader (λex=500 nm, λem=540 nm; BioTek, Winooski, Vt.) and quantified with Gen5 1.05 software (BioTek). The final OD600 for each well was measured to normalize GFP production to cell density. All synthetic compounds were tested in triplicate, and three separate trials were performed with unique cultures. Agonism dose-response analyses were performed by testing compounds over a range of concentrations with the RhlR reporter.

RhlR [4] = target: T1, RhlR; experiment: E. coli RhlR reporter agonism assay (JLD271/pJN105R2/pSC11-rhlI*); assay type: cell-based, P. aeruginosa; settings: compound at 10 μM; RhlR activity relative to 1 mM BHL; E. coli reporter
Method: as §1
To evaluate the modulatory activities of library compounds on RhlR and LasR using E. coli reporters, the strains JLD271/pJN105R2/pSC11-rhlI* and JLD271/pJN105L/pSC11 were used, respectively, as previously described.^38, 51 The following modifications were used in the RhlR agonism reporter assay, non-native compounds (10 μM or 1 mM) were compared to 1 mM BHL as the positive control. Briefly, a subculture was prepared by diluting an overnight culture 1:10 with fresh media containing 100 μg/mL ampicillin and 10 μg/mL gentamicin, and was incubated until it had grown to OD600=0.45. In all assays, L-arabinose was added to a final concentration of 4 mg/mL to induce RhlR expression. For RhlR agonism assays, activities of test compounds were measured relative to 1 mM BHL (the concentration required to induce a maximal level of RhlR activity). For RhlR antagonism assays, test compounds were competed against a concentration of BHL approximately equal to its EC50 value (10 μM). Activity was measured relative to 10 μM BHL. Inhibition was calculated by subtracting 100% from the relative activity value. Thus, 0% inhibition mimics represents no competitive displacement of 10 μM BHL by a test compound. In all assays, modifications were made to the standard Miller assay protocol to accommodate the use of the chlorophenol red-β-D-galactopyranoside (CPRG) β-galactosidase substrate. After cell lysis, 150 μL of the aqueous layer was transferred from each well of a solvent-resistant 96-well microtiter plate to the wells of a new clear, flat-bottom 96-well microtiter plate. CPRG (4 mg/mL in phosphate-buffered saline) was added to each well in 25 μL volumes. Plates were incubated at 30° C. until the positive control wells developed a red color (approximately 30 min). The amount of processed CPRG substrate was assessed by measuring the absorbance of each well at 570 nm. Enzymatic activity was calculated using the following equation: adjusted Miller units=1000·Abs570/(OD600·t·V),
as §2
Because LuxR-type receptors are often unstable in solution, preventing the use of in vitro assays to directly assess small molecule agonism and antagonism, reporter gene assays represent a standard method for screening small-molecule libraries for LuxR-type receptor modulation. Previously reported strains for this purpose were used in the current study.^38 Synthetic N-butanoyl L-homoserine lactone (BHL), the native ligand of RhlR, was used as the positive control for receptor activation. Commonly, agonists are measured relative to maximum possible receptor activation within a particular assay medium;^40 because the dose-response curve of BHL is distinctly shallow in these RhlR reporters, a high concentration of BHL is required to maximally activate RhlR. In this study, activation of compounds was measured relative to that elicited by 1 mM BHL (the concentration of BHL used causes no aberrant growth effects in the reporter strain). […]

RhlR [5] = target: T1, RhlR; experiment: P. aeruginosa RhlR reporter agonism assay (PAO-JP2/prhlI-LVAgfp); assay type: cell-based; settings: P. aeruginosa reporter compared with E. coli reporter
Method: as §1, §3, §4
Library compounds J18 and J24, as well as controls BHL and S4, were evaluated for potency in the native genetic background of RhlR by using the P. aeruginosa strain PAO-JP2 (ΔlasIrhlI) harboring the RhlR reporter plasmid prhlI-LVAgfp (Table 3). Because the production of RhlR is dependent on LasR (in LB medium), all assays were performed in the presence of 100 nM OdDHL, enabling immediate transcription of RhlR via LasR activation. […] All compounds also retained similar potencies when screened in the P. aeruginosa background.

Row | Compound | pIC50 (RhlR [1]) | Maximum Inhibition (%) (RhlR [1]) | half-life at 50 μM ([2]; pH 6, 1 mM MES buffer) [h] | half-life at 50 μM ([2]; pH 7, 1 mM TRIS buffer) [h] | half-life at 50 μM ([2]; pH 8, 1 mM TRIS buffer) [h] | half-life at 50 μM ([2]; pH 9, 1 mM TRIS buffer) [h] | pIC50 (RhlR [3]) | Maximum Inhibition (%) (RhlR [3]; P. aeruginosa reporter, relative to activation of 10 μM BHL alone) | fold change of IC50 from E. coli to P. aeruginosa reporter (RhlR [3]; vs 10 μM BHL) [fold] | increase of maximum inhibition from E. coli to P. aeruginosa reporter (RhlR [3]; vs 10 μM BHL) | RhlR antagonist activity in words (RhlR [1]; E. coli reporter vs 10 μM BHL) | inhibition at 10 µM (RhlR [1]; read-out: % inhibition (10 μM), compound at 10 μM in the presence of 10 μM BHL, negative = agonism stronger than 10 μM BHL alone) [%] | inhibition at 1000 µM (RhlR [1]; read-out: % inhibition (1 mM), compound at 1 mM in the presence of 10 μM BHL, negative = agonism stronger than 10 μM BHL alone) [%] | activation at 10 µM (RhlR [4]) [%] | RhlR agonist potency in words (RhlR [5])
1 | O=C(COc1ccc(I)cc1)NC1CCOC1=O (centres unmarked) [Compound E22, reference compound] | 4.76 | 74 | 182 | 48.1 | 10.1 | 2.3 | 4.62 | 96 | ~1.4 | more than 20% |  |  |  |  | 
2 | O=C(NC1CCCC1)C1CCC1 [RN13] | 4.57 | 32 |  |  |  |  |  |  |  |  | potent antagonist activity; also recorded: two-fold increased potency as measured by IC50 over parent compound RN4; also recorded: undesirable non-monotonic behavior | 24 | 25 | 0 | maintained activity between the two different reporters
